Assay results as given in patent US20230123334A1, “AMINO LIPID COMPOUND, PREPARATION METHOD THEREFOR, AND APPLICATION THEREOF” (SHENZHEN SHENXIN BIOTECHNOLOGY CO., LTD., priority 2020, published 2023).

test system: HEK293 cells; assay: Preliminary screening as DNA vectors, GFP transfection of HEK293 cells; assay type: cell-based; conditions: HEK293 cells; lipid/DOPE liposome with 75 ng plasmid DNA (psin-EGFP-IRES-Puro); number of cells expressing GFP divided by total number of nuclei (Hoechst)
Description: Cell line: HEK293 cells (ATCC CRL-1573™)
Medium: DMEM supplemented with 10% fetal bovine serum (Invitrogen)
Mode of screening: cell transfection on 96-well plates
Detection (readout): percentage of the number of GFP fluorescent cells relative to the total number of cells (the total number of cells was measured using nucleus dye Hoechst—see FIG. 2). Lipofectamine2000 (Invitrogen) was used as positive control, according to the manufacturer's instructions.
Method: an 8-channel pipette was used for sample addition. The contents shown were for a single well of a 96-well flat plate.
1. The compound (0.01 mmol) prepared in Example 1 was dissolved in 1 mL of anhydrous ethanol. After ultrasonically dissolved, 10 μL of the resultant amino lipid solution in ethanol was taken and mixed with 5 μL of DOPE solution in ethanol (0.01 m), and then to the obtained mixture was added 35 μL of 0.2M sodium acetate buffer (pH 5.6), and 50 μL of liposome solution was prepared by vortex at a constant rotating speed for 30 s. 4 μL was taken from the 50 μL liposome solution and added to 46 μL of 0.02M sodium acetate buffer (pH 5.6), and the final liposome solution was formed by vortex at a constant rotating speed for 30 s. 5 μL was taken from the final liposome solution and mixed with 75 ng plasmid DNA (psin-EGFP-IRES-Puro, Clontech) dissolved in 5 μL of 0.02 M sodium acetate buffer, and was allowed to stay at room temperature for 30 min to form a lipid/DNA transfection complex.
2. 10 μL of the lipid/DNA transfection complex was incubated at room temperature for 30 min, followed by addition of 90 μL of fresh resuspended cells (3-5×10^4 cells) and mixing with a pipette. 100 μL of cells+lipid/DNA complex was transferred to separate wells of a 96-well culture plate immediately, and placed in an incubator containing 5% CO2 at 37° C.
3. Hoechst33258 (Invitrogen) was added at a final concentration of 0.2 μg/mL to the cells 20 to 24 hours after initial cell transfection, and cultured in darkness at 37° C. for 15 min. Afterwards, the cells were washed once with a PBS solution, and then added with medium for culture for 20 to 24 h.
4. The cells were placed in a high-throughput confocal microscope (Molecular Devices ImageXpress), and four visual fields of the image of the cells were captured for each well, and images at three laser wavelengths were captured for each sample: bright field images of cells (FIG. 2(a) and FIG. 2(b)), Hoechst-staining images showing total nuclei (FIG. 2(c) and FIG. 2(d)) and GFP images showing success in transfection with the plasmid DNA and the expression of GFP (FIG. 2(e) and FIG. 2(f)). MetaXpress software was used to separately count the cells in the Hoechst-staining images and GFP images, and then the number of cells expressing GFP was divided by the total number of nuclei to give the absolute cell transfection efficiency. The absolute transfection efficiency was calculated as follows: […]

`CCCCCCCCCCCCN(CCCCCCCCCCCC)c1nc(NCCCCCCCCCCC)nc(NCC2CCN(C)CC2)n1` [Compound N112N12D10] was tested, and the “Absolute DNA transfection efficiency in HEK293 cells” value (“Absolute DNA transfection efficiency” below) was 0.7%.

same assay, conditions: amino lipid/DOPE liposome with 75 ng plasmid DNA (psin-EGFP-IRES-Puro); number of GFP-expressing cells divided by total nuclei (Hoechst)

Compared with `CCCCCCCCCCCCCCCCNc1nc(NCCCN(C)C)nc(SCCCCCCCCCCCCCCC)n1` [S15N16 D6], `CCCCCCCCCCCCCCCCCCNc1nc(NCCN(C)C)nc(SCCCCCCCCCCCCCC)n1` [S14N18 D1] is higher in “Absolute DNA transfection efficiency” value: 0.0% for the first, 0.9% for the second.

Compared with `CCCCCCCCCSc1nc(NCCN2CCOCC2)nc(SCCCCCCCC)n1` [S8S9 D2], `CCCCCCCCCCCSc1nc(NCCN2CCOCC2)nc(SCCCCCCC)n1` [S7S11 D2] is lower in “Absolute DNA transfection efficiency” value: 37.0% for the first, 27.3% for the second.

Going from `CCCCCCCCCCCCN(CCCCCCCCCCCC)c1nc(NCCN2CCCC2)nc(SCCCCCCCCC)n1` [S9^2N12 D3] to `CCCCCCCCCCCCCCSc1nc(NCCN2CCCC2)nc(N(CCCCCCCCCCCC)CCCCCCCCCCCC)n1` [S14^2N12 D3], the “Absolute DNA transfection efficiency” value rises from 0.0% to 0.2%.

Going from `CCCCCCCCSc1nc(NCCN(CC)CC)nc(SCCCCCC)n1` [S6S8 D7] to `CCCCCCCCSc1nc(NCCN(CC)CC)nc(SCCCCCCC)n1` [S7S8 D7], the “Absolute DNA transfection efficiency” value falls from 15.0% to 5.8%.

Going from `CCCCCCCCCCSc1nc(NCCCCCC)nc(NCCN(C)C)n1` [S10N6 D1] to `CCCCCCCCCCCCSc1nc(NCCCCCC)nc(NCCN(C)C)n1` [S12N6 D1], the “Absolute DNA transfection efficiency” value falls from 6.9% to 0.3%.

Going from `CCCCCCCCCNc1nc(NCCCN(C)C)nc(SCCCCCC)n1` [S6N9 D6] to `CCCCCCCNc1nc(NCCCN(C)C)nc(SCCCCCC)n1` [S6N7 D6], the “Absolute DNA transfection efficiency” value falls from 1.5% to 0.4%.

Going from `CCCCCCCCSc1nc(NCCCCCC)nc(NCCN(CC)CC)n1` [S8N6 D7] to `CCCCCCCCCCCNc1nc(NCCN(CC)CC)nc(SCCCCCCCC)n1` [S8N11 D7], the “Absolute DNA transfection efficiency” value rises from 1.8% to 24.6%.

Going from `CCCCCCCCCSc1nc(NCCCN2CCOCC2)nc(SCCCCCCCC)n1` [S8S9 D8] to `CCCCCCCCCSc1nc(NCCCN2CCOCC2)nc(SCCCCCCC)n1` [S7S9 D8], the “Absolute DNA transfection efficiency” value falls from 16.0% to 12.2%.

Compared with `CCCCCCCCCCCCCCCSc1nc(NCCCN2CCN(C)CC2)nc(N(CCCCCCCCCCCC)CCCCCCCCCCCC)n1` [S15^2N12 D9], `CCCCCCCCCCCCCCSc1nc(NCC2CCN(C)CC2)nc(N(CCCCCCCCCCCC)CCCCCCCCCCCC)n1` [S14^2N12 D10] is lower in “Absolute DNA transfection efficiency” value: 0.9% for the first, 0.0% for the second.

First: CCCCCCCCNc1nc(NCCCN2CCN(C)CC2)nc(SCCCCCC)n1 [S6N8 D9]
Second: CCCCCCCSc1nc(NCCCCCC)nc(NCCN2CCN(C)CC2)n1 [S7N6 D5]
The “Absolute DNA transfection efficiency” value of the first is lower: 1.2% for the first, 28.5% for the second.

Going from `CCCCCCCCCCCCCNc1nc(NCCCN2CCOCC2)nc(SCCCCCCCCCCC)n1` [S11N13 D8] to `CCCCCCCCCCCCCCCNc1nc(NCCCN2CCOCC2)nc(SCCCCCCCC)n1` [S8N15 D8], the “Absolute DNA transfection efficiency” value rises from 0.9% to 7.7%.

Going from `CCCCCCCCCCCCCNc1nc(NCCCN(C)C)nc(SCCCCCCCCCCCC)n1` [S12N13 D6] to `CCCCCCCCCCCCCCSc1nc(NCCCCCCCCCCCC)nc(NCCN(C)C)n1` [S14N12 D1], the “Absolute DNA transfection efficiency” value rises from 7.0% to 15.3%.

Going from `CCCCCCCCCCCCCCCCSc1nc(NCCCCCCCCCCCC)nc(NCCN(C)C)n1` [S16N12 D1] to `CCCCCCCCCCCCCCCCNc1nc(NCCN2CCOCC2)nc(SCCCCCCCCCCCC)n1` [S12N16 D2], the “Absolute DNA transfection efficiency” value falls from 4.2% to 0.0%.

First: CCCCCCCCCCSc1nc(NCCN2CCCC2)nc(SCCCCCCC)n1 [S7S10 D3]
Second: CCCCCCCCCCCSc1nc(NCCN2CCCC2)nc(SCCCCCCCC)n1 [S8S11 D3]
The “Absolute DNA transfection efficiency” value of the first is higher: 19.4% for the first, 6.1% for the second.

Going from `CCCCCCCNc1nc(NCCCN2CCOCC2)nc(SCCCCCC)n1` [S6N7 D8] to `CCCCCCCCSc1nc(NCCCCCCC)nc(NCCN2CCOCC2)n1` [S8N7 D2], the “Absolute DNA transfection efficiency” value rises from 0.0% to 0.4%.

Going from `CCCCCCCCCCCCCCCNc1nc(NCCN2CCN(C)CC2)nc(SCCCCCCCCC)n1` [S9N15 D5] to `CCCCCCCCCCCCCCSc1nc(NCCCCCCCCC)nc(NCCCN2CCN(C)CC2)n1` [S14N9 D9], the “Absolute DNA transfection efficiency” value rises from 16.1% to 16.7%.

First: CCCCCCCCCCCCCCCCNc1nc(NCCN2CCCC2)nc(SCCCCCCC)n1 [S7N16 D3]
Second: CCCCCCCCCCCNc1nc(NCCN2CCCCC2)nc(SCCCCCCCCC)n1 [S9N11 D4]
The “Absolute DNA transfection efficiency” value of the first is higher: 21.2% for the first, 8.3% for the second.

Compared with `CCCCCCCCCCCNc1nc(NCCN2CCN(C)CC2)nc(SCCCCCCC)n1` [S7N11 D5], `CCCCCCCCCCCSc1nc(NCCCN2CCN(C)CC2)nc(SCCCCCCC)n1` [S7S11 D9] is lower in “Absolute DNA transfection efficiency” value: 43.7% for the first, 25.9% for the second.

Compared with `CCCCCCCCCCCCCCCNc1nc(NCC2CCN(C)CC2)nc(SCCCCCC)n1` [S6N15 D10], `CCCCCCCCCCCCCNc1nc(NCC2CCN(C)CC2)nc(SCCCCCCCCCCC)n1` [S11N13 D10] is lower in “Absolute DNA transfection efficiency” value: 31.1% for the first, 3.8% for the second.

Compared with `CCCCCCCCCCCCCCCSc1nc(NCCN2CCN(C)CC2)nc(SCCCCCC)n1` [S6S15 D5], `CCCCCCCCCCCCCCCCSc1nc(NCCCN2CCOCC2)nc(SCCCCCC)n1` [S6S16 D8] is lower in “Absolute DNA transfection efficiency” value: 13.7% for the first, 0.0% for the second.

Compared with `CCCCCCCCCCCCCCCNc1nc(NCCN2CCCCC2)nc(SCCCCCCCCCCCC)n1` [S12N15 D4], `CCCCCCCCCCCCCCCNc1nc(NCCN2CCN(C)CC2)nc(SCCCCCCCCCCCCCC)n1` [S14N15 D5] is lower in “Absolute DNA transfection efficiency” value: 1.0% for the first, 0.4% for the second.

Compared with `CCCCCCCCCNc1nc(NCC2CCN(C)CC2)nc(SCCCCCCC)n1` [S7N9 D10], `CCCCCCCCCCSc1nc(NCC2CCN(C)CC2)nc(SCCCCCC)n1` [S6S10 D10] is lower in “Absolute DNA transfection efficiency” value: 15.0% for the first, 14.9% for the second.

Going from `CCCCCCCCCCCCSc1nc(NCCCCCC)nc(NCCCN(C)C)n1` [S12N6 D6] to `CCCCCCCCCNc1nc(NCCN(C)C)nc(SCCCCCCCCC)n1` [S9N9 D1], the “Absolute DNA transfection efficiency” value rises from 1.1% to 35.3%.

First: CCCCCCCCCCCCN(CCCCCCCCCCCC)c1nc(NCCCN(C)C)nc(SCCCCCCC)n1 [S7^2N12 D6]
Second: CCCCCCCCCCCCCCCCCCSc1nc(NCCCN(C)C)nc(N(CCCCCCCCCCCC)CCCCCCCCCCCC)n1 [S18^2N12 D6]
The “Absolute DNA transfection efficiency” value of the first is lower: 0.6% for the first, 1.6% for the second.

Going from `CCCCCCCCCCCCCCCSc1nc(NCCCCCC)nc(NCCN(CC)CC)n1` [S15N6 D7] to `CCCCCCCCCCCCSc1nc(NCCCCCCCC)nc(NCCN(CC)CC)n1` [S12N8 D7], the “Absolute DNA transfection efficiency” value falls from 5.1% to 0.1%.

Compared with `CCCCCCCCCCCCCCCNc1nc(NCC2CCN(C)CC2)nc(SCCCCCCCCCCCCCCC)n1` [S15N15 D10], `CCCCCCCCCCCCCCCCCCNc1nc(NCC2CCN(C)CC2)nc(SCCCCCCCCCC)n1` [S10N18 D10] is higher in “Absolute DNA transfection efficiency” value: 0.3% for the first, 3.8% for the second.

First: CCCCCCSc1nc(NCC2CCN(C)CC2)nc(SCCCCCC)n1 [S6S6 D10]
Second: CCCCCCCCCCCCCCSc1nc(NCCCCCCCCCCCC)nc(NCC2CCN(C)CC2)n1 [S14N12 D10]
The “Absolute DNA transfection efficiency” value of the first is higher: 21.6% for the first, 5.8% for the second.

Going from `CCCCCCCCCCCCCCCSc1nc(NCCN(CC)CC)nc(SCCCCCC)n1` [S6S15 D7] to `CCCCCCCCCCCCNc1nc(NCCCN2CCOCC2)nc(SCCCCCCCCCC)n1` [S10N12 D8], the “Absolute DNA transfection efficiency” value rises from 3.3% to 5.3%.

First: CCCCCCCCCSc1nc(NCCCCCCCC)nc(NCCN2CCOCC2)n1 [S9N8 D2]
Second: CCCCCCCCCCCCCCCCNc1nc(NCCCN2CCOCC2)nc(SCCCCCCCCCCCCCC)n1 [S14N16 D8]
The “Absolute DNA transfection efficiency” value of the first is higher: 13.9% for the first, 0.1% for the second.
